Test results: patent US20230416203A1, “POTENT AND SELECTIVE INHIBITORS OF THE CALCIUM-ACTIVATED POTASSIUM CHANNEL, KCA3.1, FOR USE AS PLATFORM THERAPEUTICS” (priority 2020, published 2023)

Legend:
KV11.1 (hERG) = biological target: T1, KV11.1 (hERG) (Homo sapiens, UniProt Q12809); test: Potassium channels patch-clamp (QPatch), KV11.1 (hERG); type: cell-based
T1 construct: host or cells: CHO
Protocol: (§1) The effects of Group 4 compounds on related potassium channels were evaluated by patch-clamp using a QPatch HTX automated electrophysiology platform (Sophion, Denmark). The giga-seal and whole-cell requirements for the automated electrophysiology were the following: minimum seal resistance=0.1 GO, holding potential=−80 mV, holding pressure=−20 mbar; and positioning pressure=−70 mbar.

KV4.2 = biological target: T2, KV4.2 (Rattus norvegicus, UniProt Q63881); test: Potassium channels patch-clamp (QPatch), KV4.2; type: cell-based
T2 construct: expressed in transfected cells; host or cells: LTK
T2 sequence (Q63881 1-630): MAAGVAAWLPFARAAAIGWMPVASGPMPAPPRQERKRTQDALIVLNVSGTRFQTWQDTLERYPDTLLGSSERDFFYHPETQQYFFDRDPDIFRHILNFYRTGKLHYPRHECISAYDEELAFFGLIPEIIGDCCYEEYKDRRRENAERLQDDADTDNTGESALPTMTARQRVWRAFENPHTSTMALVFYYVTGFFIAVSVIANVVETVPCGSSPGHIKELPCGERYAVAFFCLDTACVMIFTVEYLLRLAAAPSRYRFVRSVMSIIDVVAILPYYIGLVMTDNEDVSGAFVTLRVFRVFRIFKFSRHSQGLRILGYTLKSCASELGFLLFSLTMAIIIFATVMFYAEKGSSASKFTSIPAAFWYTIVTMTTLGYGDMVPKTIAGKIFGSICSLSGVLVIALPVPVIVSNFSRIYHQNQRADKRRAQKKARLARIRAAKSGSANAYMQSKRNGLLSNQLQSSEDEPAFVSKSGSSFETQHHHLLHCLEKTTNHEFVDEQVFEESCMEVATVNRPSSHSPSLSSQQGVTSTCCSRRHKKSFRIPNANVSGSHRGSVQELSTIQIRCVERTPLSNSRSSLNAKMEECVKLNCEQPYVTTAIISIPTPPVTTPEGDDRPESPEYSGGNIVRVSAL
Protocol: as §1

KV1.7 = biological target: T3, KV1.7 (Homo sapiens, UniProt Q96RP8); test: Potassium channels patch-clamp (QPatch), KV1.7; type: cell-based
T3 construct: expressed in transfected cells; host or cells: CHL
Protocol: as §1

KV1.1 = biological target: T4, KV1.1 (Mus musculus, UniProt P16388); test: Potassium channels patch-clamp (QPatch), KV1.1; type: cell-based
T4 construct: expressed in transfected cells; host or cells: L929
Protocol: as §1

in vitro = details: human, microsomes, pH 7.4
CYP-3A4 = biological target: T5, CYP-3A4 (Homo sapiens, UniProt P08684); test: Cytochrome P450 enzymes inhibition assay, CYP-3A4; type: in vitro ADME; details: for CYP IC50/KCa3.1 IC50: CYP-3A4
T5 construct: from tissue
Description: (§2) The metabolite formation for each substrate under the above conditions was estimated using the following formula: Percent inhibition=[1−(test area ratio/control area ratio)]×100.

[1] = biological target: CaV1.2 channel over KCa3.1 (Homo sapiens, UniProt Q13936); test: in vitro; details: pH 7.4
CYP-2C19 = CYP-2C19 (Homo sapiens, UniProt P33261); test: Cytochrome P450 enzymes inhibition assay, CYP-2C19; type: in vitro ADME; details: for CYP IC50/KCa3.1 IC50: CYP-2C19
Description: as §2

KV1.3 = biological target: T6, KV1.3 (Mus musculus, UniProt P16390); test: Potassium channels patch-clamp (QPatch), KV1.3; type: cell-based
T6 construct: expressed in transfected cells; host or cells: L929
Protocol: as §1

KV1.5 = biological target: T7, KV1.5 (Homo sapiens, UniProt P22460); test: Potassium channels patch-clamp (QPatch), KV1.5; type: cell-based
T7 construct: expressed in transfected cells; host or cells: MEL
Protocol: as §1

KCa1.1 = biological target: T8, KCa1.1 (Homo sapiens, UniProt Q12791); test: Potassium channels patch-clamp (QPatch), KCa1.1; type: cell-based
T8 construct: expressed in transfected cells; host or cells: HEK
Protocol: as §1

KV1.2 = biological target: T9, KV1.2 (Rattus norvegicus, UniProt P63142); test: Potassium channels patch-clamp (QPatch), KV1.2; type: cell-based
T9 construct: expressed in transfected cells; host or cells: B82
Protocol: as §1

CYP-2D6 = biological target: T10, CYP-2D6 (Homo sapiens, UniProt P10635); test: Cytochrome P450 enzymes inhibition assay, CYP-2D6; type: in vitro ADME; details: for CYP IC50/KCa3.1 IC50: CYP-2D6
T10 construct: from tissue
Description: as §2

CYP-IA2 = biological target: T11, CYP-IA2 (Homo sapiens, UniProt P05177); test: Cytochrome P450 enzymes inhibition assay, CYP-IA2; type: in vitro ADME; details: for CYP IC50/KCa3.1 IC50: CYP-IA2
T11 construct: from tissue
T11 sequence (P05177 1-516): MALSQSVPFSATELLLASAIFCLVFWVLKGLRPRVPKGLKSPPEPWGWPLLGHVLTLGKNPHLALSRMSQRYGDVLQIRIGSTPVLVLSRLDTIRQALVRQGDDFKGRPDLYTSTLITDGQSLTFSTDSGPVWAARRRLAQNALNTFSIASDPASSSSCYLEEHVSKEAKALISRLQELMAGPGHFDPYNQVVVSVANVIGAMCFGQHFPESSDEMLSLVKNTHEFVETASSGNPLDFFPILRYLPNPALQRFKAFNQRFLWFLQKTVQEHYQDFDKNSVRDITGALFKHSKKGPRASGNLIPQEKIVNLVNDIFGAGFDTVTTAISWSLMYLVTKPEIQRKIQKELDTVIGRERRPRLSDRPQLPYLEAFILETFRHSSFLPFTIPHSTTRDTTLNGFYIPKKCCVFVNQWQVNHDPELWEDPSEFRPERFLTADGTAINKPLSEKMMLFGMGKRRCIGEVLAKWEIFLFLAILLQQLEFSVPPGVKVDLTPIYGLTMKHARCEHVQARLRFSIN
Description: as §2

CYP-2C9 = CYP-2C9 (Homo sapiens, UniProt P11712); test: Cytochrome P450 enzymes inhibition assay, CYP-2C9; type: in vitro ADME; details: for CYP IC50/KCa3.1 IC50: CYP-2C9
Description: as §2

T10 sequence (P10635 whole entry): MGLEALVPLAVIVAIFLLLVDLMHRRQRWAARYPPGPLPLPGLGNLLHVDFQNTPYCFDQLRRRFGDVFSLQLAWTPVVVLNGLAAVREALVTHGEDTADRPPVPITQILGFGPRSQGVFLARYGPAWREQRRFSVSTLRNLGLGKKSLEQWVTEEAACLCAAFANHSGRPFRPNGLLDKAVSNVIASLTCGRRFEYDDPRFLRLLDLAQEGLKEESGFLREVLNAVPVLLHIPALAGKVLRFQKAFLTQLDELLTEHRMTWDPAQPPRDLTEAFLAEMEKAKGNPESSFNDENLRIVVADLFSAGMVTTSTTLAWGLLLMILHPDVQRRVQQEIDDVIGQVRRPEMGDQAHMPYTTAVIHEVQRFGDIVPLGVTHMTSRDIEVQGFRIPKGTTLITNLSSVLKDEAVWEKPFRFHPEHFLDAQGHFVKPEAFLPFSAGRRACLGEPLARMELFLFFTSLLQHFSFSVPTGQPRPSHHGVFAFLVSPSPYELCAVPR
T5 sequence (P08684 whole entry): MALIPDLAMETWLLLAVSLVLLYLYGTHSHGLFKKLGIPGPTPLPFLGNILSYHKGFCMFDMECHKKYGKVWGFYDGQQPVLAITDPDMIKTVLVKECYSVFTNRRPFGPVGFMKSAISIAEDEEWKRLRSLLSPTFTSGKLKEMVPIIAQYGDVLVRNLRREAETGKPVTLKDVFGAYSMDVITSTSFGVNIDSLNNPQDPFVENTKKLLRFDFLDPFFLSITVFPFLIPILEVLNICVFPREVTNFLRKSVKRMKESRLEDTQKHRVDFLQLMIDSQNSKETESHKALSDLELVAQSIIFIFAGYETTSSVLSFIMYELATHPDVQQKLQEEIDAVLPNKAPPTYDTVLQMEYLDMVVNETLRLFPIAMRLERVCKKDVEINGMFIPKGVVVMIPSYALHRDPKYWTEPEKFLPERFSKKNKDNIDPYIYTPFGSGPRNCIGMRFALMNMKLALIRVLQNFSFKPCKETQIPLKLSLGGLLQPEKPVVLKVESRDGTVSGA
Sequence of CYP-2C19 (P33261 whole entry): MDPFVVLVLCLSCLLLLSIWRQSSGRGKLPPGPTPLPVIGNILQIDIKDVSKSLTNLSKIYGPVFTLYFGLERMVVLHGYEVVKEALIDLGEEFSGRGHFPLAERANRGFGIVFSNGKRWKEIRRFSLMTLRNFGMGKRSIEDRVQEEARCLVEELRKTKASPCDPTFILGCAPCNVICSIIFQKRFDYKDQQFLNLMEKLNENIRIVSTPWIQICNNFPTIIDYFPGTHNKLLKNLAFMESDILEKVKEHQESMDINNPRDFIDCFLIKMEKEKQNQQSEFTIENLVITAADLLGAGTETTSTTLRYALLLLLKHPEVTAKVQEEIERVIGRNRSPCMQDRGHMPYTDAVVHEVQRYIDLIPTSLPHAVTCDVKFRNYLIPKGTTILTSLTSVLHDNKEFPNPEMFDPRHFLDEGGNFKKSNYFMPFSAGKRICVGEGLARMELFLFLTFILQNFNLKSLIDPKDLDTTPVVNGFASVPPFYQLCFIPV
Sequence of CYP-2C9 (P11712 whole entry): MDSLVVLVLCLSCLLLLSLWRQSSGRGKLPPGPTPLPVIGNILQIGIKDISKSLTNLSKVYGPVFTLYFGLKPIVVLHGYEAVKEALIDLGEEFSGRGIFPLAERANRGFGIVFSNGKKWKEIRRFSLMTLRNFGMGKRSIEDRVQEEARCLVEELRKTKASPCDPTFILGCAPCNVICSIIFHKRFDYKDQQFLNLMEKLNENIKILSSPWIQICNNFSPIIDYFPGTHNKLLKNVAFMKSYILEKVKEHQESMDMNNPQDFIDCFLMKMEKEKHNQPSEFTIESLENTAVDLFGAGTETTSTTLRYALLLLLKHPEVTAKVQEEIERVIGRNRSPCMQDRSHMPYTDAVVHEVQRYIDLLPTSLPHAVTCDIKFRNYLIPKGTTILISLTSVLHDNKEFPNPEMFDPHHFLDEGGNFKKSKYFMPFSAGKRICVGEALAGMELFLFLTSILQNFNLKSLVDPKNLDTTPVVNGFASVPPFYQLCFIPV
T6 sequence (P16390 whole entry): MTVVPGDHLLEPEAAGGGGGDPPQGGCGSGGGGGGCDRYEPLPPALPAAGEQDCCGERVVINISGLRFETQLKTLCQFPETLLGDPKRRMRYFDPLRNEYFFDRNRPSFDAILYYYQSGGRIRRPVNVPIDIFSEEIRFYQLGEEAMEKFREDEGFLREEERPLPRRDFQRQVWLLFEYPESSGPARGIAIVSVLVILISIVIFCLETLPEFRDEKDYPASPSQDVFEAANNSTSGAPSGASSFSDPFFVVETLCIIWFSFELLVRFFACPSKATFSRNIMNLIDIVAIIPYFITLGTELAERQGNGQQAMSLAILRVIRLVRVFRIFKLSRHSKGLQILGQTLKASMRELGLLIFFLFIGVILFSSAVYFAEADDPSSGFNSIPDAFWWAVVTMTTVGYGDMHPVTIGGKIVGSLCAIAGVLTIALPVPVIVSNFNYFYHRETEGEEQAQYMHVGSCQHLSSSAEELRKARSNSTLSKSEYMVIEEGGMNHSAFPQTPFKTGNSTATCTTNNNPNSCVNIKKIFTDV
T1 sequence (Q12809 whole entry): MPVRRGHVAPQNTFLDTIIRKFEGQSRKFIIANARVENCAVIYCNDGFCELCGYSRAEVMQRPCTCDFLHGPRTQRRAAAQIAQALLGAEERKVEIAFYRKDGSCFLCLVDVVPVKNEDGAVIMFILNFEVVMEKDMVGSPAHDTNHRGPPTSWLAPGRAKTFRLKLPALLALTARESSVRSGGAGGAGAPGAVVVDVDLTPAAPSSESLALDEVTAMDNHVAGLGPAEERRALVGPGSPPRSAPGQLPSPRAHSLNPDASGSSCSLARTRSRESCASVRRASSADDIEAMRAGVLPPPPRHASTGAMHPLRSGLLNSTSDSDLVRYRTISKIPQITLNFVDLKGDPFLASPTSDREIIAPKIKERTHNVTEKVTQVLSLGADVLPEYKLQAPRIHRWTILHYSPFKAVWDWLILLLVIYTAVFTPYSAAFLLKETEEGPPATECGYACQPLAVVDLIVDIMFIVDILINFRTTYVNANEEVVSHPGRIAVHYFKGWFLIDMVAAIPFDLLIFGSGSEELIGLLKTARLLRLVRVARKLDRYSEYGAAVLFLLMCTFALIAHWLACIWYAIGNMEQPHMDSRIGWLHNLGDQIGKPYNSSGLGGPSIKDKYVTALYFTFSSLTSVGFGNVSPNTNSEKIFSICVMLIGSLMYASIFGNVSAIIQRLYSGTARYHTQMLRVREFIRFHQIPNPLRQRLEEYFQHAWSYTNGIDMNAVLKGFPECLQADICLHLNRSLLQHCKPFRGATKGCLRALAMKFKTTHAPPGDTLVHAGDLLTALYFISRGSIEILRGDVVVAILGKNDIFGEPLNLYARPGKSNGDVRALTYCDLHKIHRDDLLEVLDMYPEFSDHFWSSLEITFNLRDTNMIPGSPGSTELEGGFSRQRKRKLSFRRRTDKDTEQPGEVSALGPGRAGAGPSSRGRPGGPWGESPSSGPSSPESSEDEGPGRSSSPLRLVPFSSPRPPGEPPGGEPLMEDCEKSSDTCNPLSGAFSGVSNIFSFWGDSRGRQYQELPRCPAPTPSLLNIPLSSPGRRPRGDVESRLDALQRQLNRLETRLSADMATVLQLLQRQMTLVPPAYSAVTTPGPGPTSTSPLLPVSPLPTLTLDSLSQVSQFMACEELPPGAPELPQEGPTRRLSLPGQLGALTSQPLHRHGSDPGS
T9 sequence (P63142 whole entry): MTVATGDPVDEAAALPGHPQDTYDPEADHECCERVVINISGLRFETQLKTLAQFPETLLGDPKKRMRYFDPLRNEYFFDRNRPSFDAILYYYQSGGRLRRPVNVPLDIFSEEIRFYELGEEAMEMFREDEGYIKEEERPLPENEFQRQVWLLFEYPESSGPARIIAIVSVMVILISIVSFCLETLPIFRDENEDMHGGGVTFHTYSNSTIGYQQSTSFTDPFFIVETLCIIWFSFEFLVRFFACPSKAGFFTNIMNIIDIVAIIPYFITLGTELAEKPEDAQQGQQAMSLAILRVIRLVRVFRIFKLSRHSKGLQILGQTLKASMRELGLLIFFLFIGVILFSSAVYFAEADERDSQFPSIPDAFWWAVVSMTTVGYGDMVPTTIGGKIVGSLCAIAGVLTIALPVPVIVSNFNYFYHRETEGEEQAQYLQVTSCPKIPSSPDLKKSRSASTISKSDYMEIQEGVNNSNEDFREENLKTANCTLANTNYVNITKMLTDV
T3 sequence (Q96RP8 whole entry): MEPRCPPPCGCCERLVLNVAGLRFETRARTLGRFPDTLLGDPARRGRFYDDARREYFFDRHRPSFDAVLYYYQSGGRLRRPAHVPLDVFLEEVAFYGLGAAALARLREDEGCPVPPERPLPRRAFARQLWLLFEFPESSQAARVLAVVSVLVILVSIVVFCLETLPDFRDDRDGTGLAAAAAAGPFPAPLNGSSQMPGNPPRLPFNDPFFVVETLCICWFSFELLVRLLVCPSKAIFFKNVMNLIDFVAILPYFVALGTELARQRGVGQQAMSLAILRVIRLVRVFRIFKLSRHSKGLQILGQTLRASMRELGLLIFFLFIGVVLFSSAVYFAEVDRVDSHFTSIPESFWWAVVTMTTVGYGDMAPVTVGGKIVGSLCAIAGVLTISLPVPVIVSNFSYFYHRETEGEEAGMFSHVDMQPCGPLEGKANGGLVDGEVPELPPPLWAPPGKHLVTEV

Compound `COC(=O)C1=C(C)NC(C)=C(C(=O)OC)C1c1ccc(F)c(C(F)(F)F)c1` [Compound 101] has an IC50 (KV11.1 (hERG)) greater than 10 µM, an IC50 (KV4.2) greater than 10 µM and an IC50 (KV1.7) greater than 10 µM. For the same compound, the IC50 (KV1.1) was greater than 10 µM, the half-life at 1 μM (in vitro) was 22 min and the “CYP IC50/KCa3.1 IC50” value (CYP-3A4) was 79.75. For the same compound, the IC50 (CYP-3A4; microsomes) was 1.3 µM, the selectivity ratio [1] was 200 and the “CYP IC50/KCa3.1 IC50” value (CYP-2C19) was 1226. For the same compound, the IC50 (CYP-2C19; microsomes) was greater than 20 µM, the IC50 (KV1.3) was greater than 10 µM and the IC50 (KV1.5) was greater than 10 µM. For the same compound, the IC50 (KCa1.1) was greater than 10 µM, the IC50 (KV1.2) was greater than 10 µM and the “CYP IC50/KCa3.1 IC50” value (CYP-2D6) was 1226. For the same compound, the IC50 (CYP-2D6; microsomes) was greater than 20 µM, the “CYP IC50/KCa3.1 IC50” value (CYP-IA2) was 558 and the IC50 (CYP-IA2; microsomes) was 9.1 µM. The “CYP IC50/KCa3.1 IC50” value (CYP-2C9) was 162.5 and the IC50 (CYP-2C9; microsomes) was 2.6 µM.
Work on `COC(=O)C1=CNC=C(C(=O)OC)C1c1ccc(F)c(C(F)(F)F)c1` [Compound 103, Dimethyl 4-(4-fluoro-3-(trifluoromethyl)phenyl)-1,4-dihydropyridine-3,5-dicarboxylate] yielded an IC50 (KV11.1 (hERG)) greater than 10 µM, an IC50 (KV4.2) greater than 10 µM and an IC50 (KV1.7) greater than 10 µM. For the same compound, the IC50 (KV1.1) was greater than 10 µM, the half-life at 1 μM (in vitro) was 16 min and the “CYP IC50/KCa3.1 IC50” value (CYP-3A4) was 3279. For the same compound, the selectivity ratio [1] was 2210, the “CYP IC50/KCa3.1 IC50” value (CYP-2C19) was 3279 and the IC50 (KV1.3) was greater than 10 µM. For the same compound, the IC50 (KV1.5) was greater than 10 µM, the IC50 (KCa1.1) was greater than 10 µM and the IC50 (KV1.2) was greater than 10 µM. For the same compound, the “CYP IC50/KCa3.1 IC50” value (CYP-2D6) was 3279, the “CYP IC50/KCa3.1 IC50” value (CYP-IA2) was 3279 and the “CYP IC50/KCa3.1 IC50” value (CYP-2C9) was 836.
